# Values of other authors, collected in patent US20100317640A1, “ANTIMICROBIAL ZINC PYRITHIONE COMPOSITION AND METHOD” (MICROBAN PRODUCTS COMPANY, priority 2009, published 2010).
# Details: neutral pH
substance,measurement,value
zinc pyrithione,solubility in water,8 ppm
